The values that follow come from patent US20220354805A1, “Cannabidiol (CBD) as Chemical for Treating Aging-related Degenerative Diseases and Promoting Health Aging” (Hemix Biotech Limited, priority 2021, published 2022).

One data set concerns Caenorhabditis elegans. As to the kind of experiment: Lifespan analysis of Caenorhabditis elegans. Format: in vivo. To be noted: C. elegans. The protocol: In step of analyzing the lifespan of Caenorhabditis elegans, for chemical treatment in Caenorhabditis elegans, chemical was added to the nematode growth medium (NGM) dishes. The NGM with agarose was autoclaved and then cooled down to below 65° C. The different concentrations of chemical were added to NGM. The NGM was then poured into 60 mm dishes and incubated at room temperature overnight. The solidified NGM dishes were stored at 4° C. Escherichia coli OP50 strain was used as the food source for C. elegans. A single colony of OP50 was incubated in 200 mL of lysogeny broth (LB) medium at 37° C. overnight. The OP50 was then killed by incubation at 65° C. for […]. The dead OP50 was spread throughout the surface of the NGM dishes. The NGM dishes with dead OP50 and CBD were stored at 4° C. for up to 2 weeks. The synchronization of C. elegans was carried out by the bleaching method. 20 L4 larvae were picked to each 60 mm dish with different concentrations of chemical and cultured at 20° C. They were monitored every day, and the number of living, dead and missing C. elegans were recorded. The C. elegans were transferred to fresh Petri dishes every 2 days to separate the target worms from their offspring and to ensure if they had enough food source. 10-20 μM of CBD was identified to be the optimal dosage for extending the lifespan of C. elegans.

Data set [1] has as its system ATF5, CEBPα and TRIB3 in skin of LMNA^G609G/G609G mice. The data set is described as follows: Immunofluorescence staining of mouse skin. The class given is in vivo. To be noted: CBD treated premature aging mice. The method, then: The tissue sections were washed twice with PBS and incubated in PBSTr (0.1% Triton X-100 in PBS) for 10 minutes. Then the cells were blocked with 5% fetal bovine serum (FBS) in PBSTr for 1 hour at room temperature. Primary antibodies diluted in 5% FBS in PBSTr were added and incubated at 4° C. overnight. On the following day, the cells were washed three times using PBSTr, incubation for 10 minutes each time. Secondary antibodies diluted in 5% FBS in PBSTr were added and incubated at room temperature for 1 hour. The cells were again washed three times using PBSTr, followed by PBS for two times. The slides were mounted with SlowFade Gold antifade reagent. Then the slides were ready to be analyzed under a confocal microscope.

Data set [2] concerns p21 and p16 in wildtype and LMNA^G609G/G609G MEFs. The data set is described as follows: Western blotting of senescence markers in MEFs. To be noted: 4-day CBD treatment. The class given is cell-based, mouse. The method, then: In the step of determining the protein expression levels of senescence markers, the primary mouse embryonic fibroblasts (MEFs) at passage 3 were seeded and cultured in 6-well plate and treated with CBD for 4 days. The cells were then washed twice with ice-cold phosphate buffered saline (PBS). RIPA 150 buffer (20 mM Tris-HCl pH 7.5, 1 mM EDTA pH 8.0, 150 mM NaCl, 1% Nonidet P-40, 0.5% sodium deoxycholate) supplemented with 1 mM dithiothreitol (DTT) and proteinase inhibitors was added to the cells and shook at 4° C. for 15 minutes. The cells were then collected into Eppendorf tubes and centrifuged at 12000 rpm at 4° C. for 10 minutes. The supernatant was collected and 6×SDS sample buffer (20 mM Tris-HCl pH 7.5, 30% glycerol, 10% sodium dodecyl sulfate (SDS), 0.6 M DTT, 0.03% bromophenol blue) was added. The samples were boiled for 5 minutes. Then they were ready for sodium dodecyl sulfate-polyacrylamide gel electrophoresis (SDS-PAGE) for Western blotting analysis. Depending on the sizes of target proteins, 7-15% polyacrylamide separating gel and 4% polyacrylamide stacking gel were made. Samples and protein ladders were loaded onto the polyacrylamide gel. Sodium dodecyl sulfate-polyacrylamide gel electrophoresis (SDS-PAGE) was performed in running buffer (25 mM Tris-HCl, 190 mM glycine and 0.1% SDS) under constant voltage of 100V for 20-30 minutes until the samples and protein ladders reached the separating gel. By then, SDS-PAGE was set to run under constant voltage of 120V for about 1 hour, depending on the size of target proteins. The proteins in the separating gel were transferred to polyvinylidene difluoride (PVDF) membrane in transfer buffer (25 mM Tris-HCl, 190 mM glycine, and 20% methanol) at constant current 0.4 A for 1.5 hours on ice. The membranes were blocked with 5% skimmed milk in phosphate buffered saline Tween-20 solution (PBST): 1×PBS and 0.1% Tween-20 and shook at room temperature for 1 hour. Primary antibodies diluted in 5% skimmed milk in PBST were added to the membrane and shook at 4° C. overnight. […]
On the technique in general: In western blotting, separated proteins are transferred to a membrane and probed.

For data set [3], the system named is bone marrow stromal cells of LMNA^G609G/G609G mice. As to the kind of experiment: Crystal violet staining colony formation assay of mouse bone marrow stromal cells. To be noted: mice treated with 50 mg/kg CBD, vs LMNA^G609G/G609G control mice and wildtype mice; 12 days of culture. Format: in vivo. The method, then: In the step of isolating the mouse bone marrow stromal cells for measurement of the clonogenicity, mice were sacrificed and placed inside tissue culture hood. The femur was dissected out using sterile utensils. The mouse bone marrow stromal cells were flushed out of femur using a 29G needle with 1 mL of ice-cold phosphate buffered saline (PBS). The bone marrow stromal cells collected were centrifuged at 3000 rpm for 5 minutes at 4° C. The supernatant was removed, and the cell pellet was resuspended in Minimum Essential Medium Eagle—alpha modification (α-MEM) supplemented with 20% fetal bovine serum (FBS) and penicillin-streptomycin (100 units/mL). The medium was changed every 3 days. After 12 days of culture, crystal violet staining colony formation assay was carried out. The cells were washed twice with ice-cold PBS. The cells were fixed with ice-cold methanol for 10 minutes. Then the cells were stained with 0.5% crystal violet dissolved in 25% methanol for 10 minutes at room temperature. The crystal violet solution was then removed, and the cells were rinsed with double-distilled water (ddH2O) until the rinse became clear. The plates were dried off, and pictures were taken for analysis.

Data set [4] has as its system wildtype and LMNA^G609G/G609G MEFs. As to the kind of experiment: Senescence-associated beta-galactosidase staining of MEFs. Format: cell-based, mouse. To be noted: vs control cells. The protocol: In the step of determining the senescence lever and optimal concentration, the primary mouse embryonic fibroblasts (MEFs) at passage 3 were seeded and cultured in chamber slides. The slides were washed twice with ice-cold phosphate buffered saline (PBS). Using senescence-associated beta-galactosidase staining kit, the cells were fixed for 10 minutes with provided paraformaldehyde and washed twice with PBS. The slides were then incubated with the staining solution at 37° C. overnight. On the following day, the slides were washed twice with PBS and mounted with 40% glycerol in PBS. The stained cells were observed under a light microscope. Senescent cells were stained blue while proliferating cells were unstained. The percentage of senescent cells was quantified by counting the number of stained and unstained cells.

The mark [5] stands for this setting: wildtype and LMNA^G609G/G609G MEFs.

Consider `C=C(C)[C@@H]1CCC(C)=C[C@H]1c1c(O)cc(CCCCC)cc1O` [CBD, Cannabidiol], for which, in the data set on Caenorhabditis elegans (10 or 20 μM CBD), the maximum lifespan increase is recorded as 8-12.5% and the median lifespan increase is given as 55-61.5%. Besides, in the data set with Caenorhabditis elegans (CBD in NGM dishes, 20° C.), the “optimal dosage for extending the lifespan” value lay within 10 to 20 µM. In addition, in data set [1], the “ATF5 protein level decrease in skin” value is “reversed”, the “CEBPα protein level decrease in skin” value was “reversed” and the “TRIB3 protein level decrease in skin” value was “reversed”. In addition, the progerin levels entry in data set [2] (MEFs) was “not affected”. Besides, in data set [2] (setting [5]), the p16 level result was “downregulate” and the p21 level result is listed as “downregulate”. Also, the number of colonies entry in data set [3] is reported as “higher number of colonies”. Besides, the senescence levels result in data set [4] (10 μM CBD, 8 days) is “decrease in senescence levels”. Further, the “senescence levels (toxicity effect)” value in data set [4] (50 μM CBD, 4 days) is recorded as “increase in senescence levels”.
